# Experimental data reported in publication PMC11882969 (Nature Communications, 2025).
# Several values for one entry are separate records, joined by “and”; a condition that tells them apart may be missing. Equal values may be shown once.
# What was measured:
# [1] = target: panel of 320 non-olfactory GPCRs (Homo sapiens, UniProt O00254); type: cell-based
# [2] = target: panel of 320 non-olfactory GPCRs (Homo sapiens, UniProt O43193); type: cell-based
# [3] = target: panel of 320 non-olfactory GPCRs (Homo sapiens, UniProt P25101); type: cell-based
# [4] = target: panel of 320 non-olfactory GPCRs (Homo sapiens, UniProt P28335); type: cell-based
# [5] = target: panel of 320 non-olfactory GPCRs (Homo sapiens, UniProt P28335, I156V/I160V); type: cell-based
# [6] = target: panel of 320 non-olfactory GPCRs (Homo sapiens, UniProt P30542); type: cell-based
# [7] = target: panel of 320 non-olfactory GPCRs (Homo sapiens, UniProt P32745); type: cell-based
# [8] = target: panel of 320 non-olfactory GPCRs (Homo sapiens, UniProt P35348); type: cell-based
# [9] = target: panel of 320 non-olfactory GPCRs (Homo sapiens, UniProt P35368); type: cell-based
# [10] = target: panel of 320 non-olfactory GPCRs (Homo sapiens, UniProt P37288); type: cell-based
# [11] = target: panel of 320 non-olfactory GPCRs (Homo sapiens, UniProt P41595); type: cell-based
# [12] = target: panel of 320 non-olfactory GPCRs (Homo sapiens, UniProt P41597); type: cell-based
# [13] = target: panel of 320 non-olfactory GPCRs (Homo sapiens, UniProt P41968); type: cell-based
# [14] = target: panel of 320 non-olfactory GPCRs (Homo sapiens, UniProt P43220); type: cell-based
# [15] = target: panel of 320 non-olfactory GPCRs (Homo sapiens, UniProt P46092); type: cell-based
# [16] = target: panel of 320 non-olfactory GPCRs (Homo sapiens, UniProt P46663); type: cell-based
# [17] = target: panel of 320 non-olfactory GPCRs (Homo sapiens, UniProt P48039); type: cell-based
# [18] = target: panel of 320 non-olfactory GPCRs (Homo sapiens, UniProt P51677); type: cell-based
# [19] = target: panel of 320 non-olfactory GPCRs (Homo sapiens, UniProt P51685); type: cell-based
# [20] = target: panel of 320 non-olfactory GPCRs (Homo sapiens, UniProt Q13585); type: cell-based
# [21] = target: panel of 320 non-olfactory GPCRs (Homo sapiens, UniProt Q5UAW9); type: cell-based
# [22] = target: panel of 320 non-olfactory GPCRs (Homo sapiens, UniProt Q6NV75); type: cell-based
# [23] = target: panel of 320 non-olfactory GPCRs (Homo sapiens, UniProt Q86SM5); type: cell-based
# [24] = target: panel of 320 non-olfactory GPCRs (Homo sapiens, UniProt Q86SQ6); type: cell-based
# [25] = target: panel of 320 non-olfactory GPCRs (Homo sapiens, UniProt Q8IZF3); type: cell-based
# [26] = target: panel of 320 non-olfactory GPCRs (Homo sapiens, UniProt Q8TDS4); type: cell-based
# [27] = target: panel of 320 non-olfactory GPCRs (Homo sapiens, UniProt Q8TDV2); type: cell-based
# [28] = target: panel of 320 non-olfactory GPCRs (Homo sapiens, UniProt Q92633); type: cell-based
# [29] = target: panel of 320 non-olfactory GPCRs (Homo sapiens, UniProt Q96P67); type: cell-based
# [30] = target: panel of 320 non-olfactory GPCRs (Homo sapiens, UniProt Q9BPV8); type: cell-based
# [31] = target: panel of 320 non-olfactory GPCRs (Homo sapiens, UniProt Q9HC97); type: cell-based
# [32] = target: panel of 320 non-olfactory GPCRs (Homo sapiens, UniProt Q9NPC1); type: cell-based
# [33] = target: panel of 320 non-olfactory GPCRs (Homo sapiens, UniProt Q9NQS5); type: cell-based
# [34] = target: panel of 320 non-olfactory GPCRs (Homo sapiens, UniProt Q9P296); type: cell-based
# [35] = target: panel of 320 non-olfactory GPCRs (Homo sapiens, UniProt Q9Y5Y3); type: cell-based
# [36] = target: panel of 320 non-olfactory GPCRs (Homo sapiens, UniProt Q9Y653); type: cell-based
# [37] = test system: panel of 320 non-olfactory GPCRs; type: cell-based, human
# Sequence of panel of 320 non-olfactory GPCRs (Homo sapiens, UniProt P43220) (P43220 24-463): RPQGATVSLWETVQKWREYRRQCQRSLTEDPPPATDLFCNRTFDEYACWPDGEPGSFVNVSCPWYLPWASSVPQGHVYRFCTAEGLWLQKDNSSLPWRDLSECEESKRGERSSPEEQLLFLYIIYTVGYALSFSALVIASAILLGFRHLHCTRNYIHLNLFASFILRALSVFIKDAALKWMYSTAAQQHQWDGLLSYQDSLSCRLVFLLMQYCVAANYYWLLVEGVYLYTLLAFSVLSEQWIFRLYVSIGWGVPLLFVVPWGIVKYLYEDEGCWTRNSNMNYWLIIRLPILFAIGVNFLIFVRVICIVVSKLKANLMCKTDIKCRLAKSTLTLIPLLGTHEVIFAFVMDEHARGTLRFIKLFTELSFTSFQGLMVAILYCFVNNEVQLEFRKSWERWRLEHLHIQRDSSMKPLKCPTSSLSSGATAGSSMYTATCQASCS
# Sequence of panel of 320 non-olfactory GPCRs (Homo sapiens, UniProt P41595) (P41595 whole entry): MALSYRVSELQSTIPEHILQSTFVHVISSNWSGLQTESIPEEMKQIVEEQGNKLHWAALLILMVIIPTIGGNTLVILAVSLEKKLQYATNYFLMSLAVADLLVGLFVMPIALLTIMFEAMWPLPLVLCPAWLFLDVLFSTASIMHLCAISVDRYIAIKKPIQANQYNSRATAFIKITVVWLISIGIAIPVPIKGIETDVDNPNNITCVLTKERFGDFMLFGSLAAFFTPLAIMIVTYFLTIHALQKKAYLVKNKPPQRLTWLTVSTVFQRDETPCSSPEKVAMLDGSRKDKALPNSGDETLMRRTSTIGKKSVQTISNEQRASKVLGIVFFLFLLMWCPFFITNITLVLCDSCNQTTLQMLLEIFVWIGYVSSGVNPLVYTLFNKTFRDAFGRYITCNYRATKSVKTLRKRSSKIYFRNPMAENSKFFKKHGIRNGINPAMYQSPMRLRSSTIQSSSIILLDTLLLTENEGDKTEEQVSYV
# Sequence of panel of 320 non-olfactory GPCRs (Homo sapiens, UniProt Q9NQS5) (Q9NQS5 whole entry): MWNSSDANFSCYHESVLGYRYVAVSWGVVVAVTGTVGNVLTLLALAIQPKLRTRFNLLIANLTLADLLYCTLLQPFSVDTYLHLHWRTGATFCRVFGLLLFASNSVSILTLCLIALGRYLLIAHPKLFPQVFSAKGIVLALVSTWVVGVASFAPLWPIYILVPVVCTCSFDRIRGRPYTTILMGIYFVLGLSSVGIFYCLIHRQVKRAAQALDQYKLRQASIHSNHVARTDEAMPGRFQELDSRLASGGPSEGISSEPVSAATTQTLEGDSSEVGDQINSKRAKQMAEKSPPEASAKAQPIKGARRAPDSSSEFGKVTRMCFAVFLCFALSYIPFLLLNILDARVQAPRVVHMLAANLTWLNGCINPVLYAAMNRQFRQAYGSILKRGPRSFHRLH
# Sequence of panel of 320 non-olfactory GPCRs (Homo sapiens, UniProt P35368) (P35368 whole entry): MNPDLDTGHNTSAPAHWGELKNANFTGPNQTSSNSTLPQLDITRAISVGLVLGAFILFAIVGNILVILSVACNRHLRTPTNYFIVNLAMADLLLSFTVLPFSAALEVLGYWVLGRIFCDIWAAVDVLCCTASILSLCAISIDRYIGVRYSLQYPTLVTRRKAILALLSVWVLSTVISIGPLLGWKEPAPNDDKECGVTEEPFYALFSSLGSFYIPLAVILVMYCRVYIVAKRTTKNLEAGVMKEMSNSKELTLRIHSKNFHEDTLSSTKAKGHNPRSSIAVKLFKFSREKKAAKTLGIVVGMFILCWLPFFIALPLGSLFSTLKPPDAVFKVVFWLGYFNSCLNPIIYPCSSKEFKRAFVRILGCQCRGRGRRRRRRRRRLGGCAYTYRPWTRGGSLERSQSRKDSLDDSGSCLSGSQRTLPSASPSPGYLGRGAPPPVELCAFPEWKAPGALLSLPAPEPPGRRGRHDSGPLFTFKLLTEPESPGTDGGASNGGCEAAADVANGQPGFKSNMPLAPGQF
# Sequence of panel of 320 non-olfactory GPCRs (Homo sapiens, UniProt P28335) (P28335 33-458): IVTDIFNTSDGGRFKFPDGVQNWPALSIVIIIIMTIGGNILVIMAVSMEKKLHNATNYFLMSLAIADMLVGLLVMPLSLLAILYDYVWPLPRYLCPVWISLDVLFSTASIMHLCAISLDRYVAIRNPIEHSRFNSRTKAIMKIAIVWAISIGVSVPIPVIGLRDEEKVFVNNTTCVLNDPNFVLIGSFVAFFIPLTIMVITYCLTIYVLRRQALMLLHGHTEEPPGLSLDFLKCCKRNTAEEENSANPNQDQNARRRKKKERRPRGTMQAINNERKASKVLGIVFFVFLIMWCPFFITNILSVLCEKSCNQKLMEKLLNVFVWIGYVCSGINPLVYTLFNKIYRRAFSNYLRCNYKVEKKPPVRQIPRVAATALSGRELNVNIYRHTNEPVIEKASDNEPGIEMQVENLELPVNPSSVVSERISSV
# Sequence of panel of 320 non-olfactory GPCRs (Homo sapiens, UniProt Q5UAW9) (Q5UAW9 whole entry): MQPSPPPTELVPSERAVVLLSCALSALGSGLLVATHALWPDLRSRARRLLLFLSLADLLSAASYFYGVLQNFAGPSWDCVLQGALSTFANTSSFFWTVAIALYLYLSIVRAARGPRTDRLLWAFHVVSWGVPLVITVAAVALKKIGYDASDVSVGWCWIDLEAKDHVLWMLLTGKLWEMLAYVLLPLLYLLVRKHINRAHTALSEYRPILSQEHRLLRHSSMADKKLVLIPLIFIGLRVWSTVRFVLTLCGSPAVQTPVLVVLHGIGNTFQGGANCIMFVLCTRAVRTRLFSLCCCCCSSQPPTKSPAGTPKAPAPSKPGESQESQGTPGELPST
# Sequence of panel of 320 non-olfactory GPCRs (Homo sapiens, UniProt Q8TDS4) (Q8TDS4 whole entry): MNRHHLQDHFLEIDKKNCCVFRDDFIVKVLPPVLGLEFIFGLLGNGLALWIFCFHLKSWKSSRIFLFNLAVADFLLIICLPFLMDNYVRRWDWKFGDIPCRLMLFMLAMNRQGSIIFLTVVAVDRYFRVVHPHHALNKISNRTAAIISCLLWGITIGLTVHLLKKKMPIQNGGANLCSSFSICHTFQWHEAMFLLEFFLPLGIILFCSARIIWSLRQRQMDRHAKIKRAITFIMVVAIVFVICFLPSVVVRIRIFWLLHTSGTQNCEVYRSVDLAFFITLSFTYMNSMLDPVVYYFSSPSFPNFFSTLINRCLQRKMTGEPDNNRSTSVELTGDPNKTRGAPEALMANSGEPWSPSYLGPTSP
# Sequence of panel of 320 non-olfactory GPCRs (Homo sapiens, UniProt P51685) (P51685 whole entry): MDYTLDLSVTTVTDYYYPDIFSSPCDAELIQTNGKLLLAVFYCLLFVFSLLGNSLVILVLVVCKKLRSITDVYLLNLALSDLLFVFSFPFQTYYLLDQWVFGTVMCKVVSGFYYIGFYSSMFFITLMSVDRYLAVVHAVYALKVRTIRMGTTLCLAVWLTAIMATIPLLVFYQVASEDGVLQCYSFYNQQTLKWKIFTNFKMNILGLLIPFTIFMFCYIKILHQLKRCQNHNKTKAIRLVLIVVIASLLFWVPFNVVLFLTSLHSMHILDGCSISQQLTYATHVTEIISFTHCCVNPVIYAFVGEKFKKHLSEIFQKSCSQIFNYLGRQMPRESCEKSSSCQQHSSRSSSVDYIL
# Sequence of panel of 320 non-olfactory GPCRs (Homo sapiens, UniProt Q9Y653) (Q9Y653 26-693): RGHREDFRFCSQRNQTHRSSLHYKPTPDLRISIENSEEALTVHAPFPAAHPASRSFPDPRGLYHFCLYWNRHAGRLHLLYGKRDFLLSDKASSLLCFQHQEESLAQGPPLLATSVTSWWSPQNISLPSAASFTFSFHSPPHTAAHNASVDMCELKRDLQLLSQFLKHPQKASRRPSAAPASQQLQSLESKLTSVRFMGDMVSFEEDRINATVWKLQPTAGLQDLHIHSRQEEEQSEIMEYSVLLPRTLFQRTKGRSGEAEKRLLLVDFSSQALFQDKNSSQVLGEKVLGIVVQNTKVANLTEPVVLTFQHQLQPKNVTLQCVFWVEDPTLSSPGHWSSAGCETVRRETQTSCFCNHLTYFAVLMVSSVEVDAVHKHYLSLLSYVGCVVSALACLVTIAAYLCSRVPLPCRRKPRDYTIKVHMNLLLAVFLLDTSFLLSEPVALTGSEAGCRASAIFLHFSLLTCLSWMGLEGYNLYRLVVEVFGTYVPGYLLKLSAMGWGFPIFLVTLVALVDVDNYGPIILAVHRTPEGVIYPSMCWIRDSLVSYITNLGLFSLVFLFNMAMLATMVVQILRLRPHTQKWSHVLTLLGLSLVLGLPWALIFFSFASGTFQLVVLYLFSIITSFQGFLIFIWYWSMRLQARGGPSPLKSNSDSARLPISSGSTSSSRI
# Sequence of panel of 320 non-olfactory GPCRs (Homo sapiens, UniProt Q9HC97) (Q9HC97 whole entry): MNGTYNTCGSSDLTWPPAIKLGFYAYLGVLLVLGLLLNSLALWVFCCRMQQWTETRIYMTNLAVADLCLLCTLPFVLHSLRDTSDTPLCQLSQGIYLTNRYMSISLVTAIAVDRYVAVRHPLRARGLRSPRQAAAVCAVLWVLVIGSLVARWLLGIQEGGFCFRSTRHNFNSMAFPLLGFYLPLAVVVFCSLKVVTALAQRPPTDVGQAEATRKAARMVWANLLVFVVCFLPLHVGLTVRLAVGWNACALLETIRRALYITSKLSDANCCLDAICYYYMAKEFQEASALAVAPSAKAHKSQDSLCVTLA
# Sequence of panel of 320 non-olfactory GPCRs (Homo sapiens, UniProt P46092) (P46092 whole entry): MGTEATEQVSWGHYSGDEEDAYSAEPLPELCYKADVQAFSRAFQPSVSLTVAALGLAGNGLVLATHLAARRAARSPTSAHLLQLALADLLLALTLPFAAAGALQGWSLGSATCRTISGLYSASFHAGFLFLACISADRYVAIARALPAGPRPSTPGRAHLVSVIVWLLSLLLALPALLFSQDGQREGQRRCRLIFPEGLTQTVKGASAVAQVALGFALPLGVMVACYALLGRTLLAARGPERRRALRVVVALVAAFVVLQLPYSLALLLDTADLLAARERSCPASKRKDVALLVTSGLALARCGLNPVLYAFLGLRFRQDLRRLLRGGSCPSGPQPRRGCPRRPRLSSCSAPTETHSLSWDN
# Sequence of panel of 320 non-olfactory GPCRs (Homo sapiens, UniProt Q86SM5) (Q86SM5 whole entry): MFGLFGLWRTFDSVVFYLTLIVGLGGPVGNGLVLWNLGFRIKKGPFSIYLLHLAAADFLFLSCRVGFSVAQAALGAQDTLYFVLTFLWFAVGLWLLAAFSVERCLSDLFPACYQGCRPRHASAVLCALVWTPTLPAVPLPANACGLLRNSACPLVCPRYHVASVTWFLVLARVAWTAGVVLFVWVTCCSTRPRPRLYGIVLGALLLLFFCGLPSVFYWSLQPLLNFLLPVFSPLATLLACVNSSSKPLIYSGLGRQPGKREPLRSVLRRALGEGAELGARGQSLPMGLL
SMILES,Fold of Basal RLU [1],Fold of Basal RLU [2],Fold of Basal RLU [3],Fold of Basal RLU [4],Fold of Basal RLU [5],Fold of Basal RLU [6],Fold of Basal RLU [7],Fold of Basal RLU [8],Fold of Basal RLU [9],Fold of Basal RLU [10],Fold of Basal RLU [11],Fold of Basal RLU [12],Fold of Basal RLU [13],Fold of Basal RLU [14],Fold of Basal RLU [15],Fold of Basal RLU [16],Fold of Basal RLU [17],Fold of Basal RLU [18],Fold of Basal RLU [19],Fold of Basal RLU [20],further results
COC(=O)[C@@](C)(NC(=O)c1cc(C)n(-c2cccc(C(F)(F)F)c2)n1)c1cccs1 [‘1350],0.9 fold and 1.1 fold,0.7 and 0.6,1.1 fold and 0.9 fold and 0.8 fold,1.6 fold and 1 fold and 1.3 fold and 1.2 fold,0.4 and 0.8,1.2 fold and 1.7 fold and 1.6 fold and 2.1 fold,0.8 and 0.9 and 0.7,1.1 and 0.9 and 1.3,1 fold and 0.8 fold and 0.6 fold and 0.9 fold,0.7 and 1 and 0.9,0.8 fold and 0.7 fold and 1 fold,0.9 and 1.4 and 1,1.3 and 0.9 and 1.1 and 0.7,1.1 and 1 and 0.9 and 0.8,0.9 fold and 1 fold and 1.2 fold and 1.3 fold,1.6 and 1.3 and 1.1,2.2 fold and 2.3 fold and 2.4 fold,0.9 fold and 1 fold and 1.2 fold,1.6 and 1.3 and 1.1 and 1,0.9 and 0.7 and 1.3 and 1,"Fold of Basal RLU [21]: 1.2 and 1.1 and 1 and 1.6; Fold of Basal RLU [22]: 0.8 fold and 0.7 fold and 1 fold and 0.9 fold; Fold of Basal RLU [23]: 0.7 fold and 0.8 fold; Fold of Basal RLU [24]: 0.9 fold and 1.1 fold and 1.3 fold; Fold of Basal RLU [25]: 1.1 fold and 0.9 fold; Fold of Basal RLU [26]: 1 fold and 0.8 fold; Fold of Basal RLU [27]: 1.2 and 0.6 and 0.9; Fold of Basal RLU [28]: 1.3 fold and 1 fold and 1.2 fold; Fold of Basal RLU [29]: 1 fold and 1.1 fold; Fold of Basal RLU [30]: 1 fold and 1.1 fold and 1.4 fold and 1.6 fold; Fold of Basal RLU [31]: 1 fold and 0.9 fold and 1.1 fold; Fold of Basal RLU [32]: 0.8 fold and 1 fold and 0.6 fold and 0.7 fold; Fold of Basal RLU [33]: 1 fold and 1.1 fold and 1.2 fold and 1.4 fold; Fold of Basal RLU [34]: 0.9 fold and 0.8 fold and 1.3 fold and 1.5 fold; Fold of Basal RLU [35]: 0.8 and 1.2 and 1.3 and 1; Fold of Basal RLU [36]: 1.4 fold and 1.2 fold and 1.5 fold; agonist activity at GPR55, GPR18, GPR119 [37]: no agonist activity; off-target functional activity [37]: little activity was seen"
Cc1cc(C(=O)NC(C)(c2ccco2)c2ccco2)nn1-c1cccc(C(F)(F)F)c1 [‘4936],1 fold and 0.7 fold and 0.9 fold and 1.1 fold,2 and 1.6 and 1.3 and 1.1,0.9 fold and 0.8 fold and 0.6 fold,1.5 fold and 1.3 fold and 1.1 fold,0.7 and 0.4 and 0.8,6.4 fold and 5.8 fold and 6.3 fold and 7.4 fold,1.3 and 0.7 and 1,0.6 and 0.7 and 1.1,0.9 fold and 0.8 fold,0.9 and 0.7 and 1.1 and 1,1.1 fold and 1.6 fold and 2 fold,0.9 and 0.8 and 1,1.5 and 0.9,0.9 and 0.7,0.9 fold and 1.2 fold and 1 fold,1.3 and 1.1 and 0.9 and 1.4,2.7 fold and 3.1 fold and 3.2 fold,1 fold and 0.9 fold and 1.4 fold,1.5 and 1.1 and 1.2 and 0.9,0.8 and 0.6 and 0.5 and 0.7,"Fold of Basal RLU [21]: 1.4 and 1.2 and 0.9 and 0.7; Fold of Basal RLU [22]: 1.7 fold and 1.2 fold and 1.4 fold and 2.1 fold; Fold of Basal RLU [23]: 1.1 fold and 1 fold; Fold of Basal RLU [24]: 0.8 fold and 0.7 fold and 0.9 fold; Fold of Basal RLU [25]: 1 fold and 1.2 fold and 0.6 fold; Fold of Basal RLU [26]: 1.2 fold and 1.1 fold and 1 fold; Fold of Basal RLU [27]: 1 and 0.6 and 1.2; Fold of Basal RLU [28]: 1.1 fold and 1 fold and 0.9 fold; Fold of Basal RLU [29]: 1 fold and 0.9 fold; Fold of Basal RLU [30]: 1.3 fold and 1.5 fold and 1.7 fold and 1.8 fold; Fold of Basal RLU [31]: 1 fold and 1.4 fold and 0.9 fold; Fold of Basal RLU [32]: 0.6 fold and 0.8 fold and 0.7 fold and 0.9 fold; Fold of Basal RLU [33]: 1 fold and 0.9 fold and 1.6 fold; Fold of Basal RLU [34]: 0.9 fold and 1 fold and 1.1 fold; Fold of Basal RLU [35]: 1.6 and 1.2 and 1.5; Fold of Basal RLU [36]: 2.1 fold and 1.6 fold and 1.2 fold and 1.1 fold; agonist activity at GPR55, GPR18, GPR119 [37]: no agonist activity; off-target functional activity [37]: except for ‘4936 against ADORA-1"
